What all share (assay): 3' UTR reporter interaction score (median-centred robust z-score of log2 firefly/Renilla activity); higher = less repression of the 3' UTR reporter
Common to all, as to details: HEK293T; 48 h

Data set [1] concerns BRCA2. The method in brief:
(§1)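 A firefly luc2P reporter carrying the gene's 3' UTR (100 ng), Renilla pRL-TK control (20 ng) and miRNA mimic (2.5 pmol) were co-transfected with DharmaFECT Duo into HEK293T cells plated at 10,000/well in 96-well plates. Luciferase activities were read 48 h post-transfection. The interaction score is the log firefly/Renilla ratio as a per-plate robust z-score from median and median absolute deviation, median-centred per miRNA, and more negative indicates interaction. Values are averages of at least two independent screens.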

The test system of data set [2] is EZH2. The method in brief:
as §1

For data set [3], the system named is FBXW7. Summed up: as §1
Data set [4] has as its system HRAS. Summed up:
as §1

For data set [5], the system named is MYB. Summed up: as §1
The subject of data set [6] is MYCN. The method in brief: as §1
Data set [7] has as its system MYC. Summed up:
as §1

Data set [8] concerns MYT1L. The method in brief:
as §1

In data set [9] the test system is NOTCH1. The method in brief:
as §1

Data set [10] deals with PHF6. Summed up: as §1
Data set [11] deals with PHOX2B. The method in brief:
as §1

The test system of data set [12] is RB1. Summed up: as §1
The test system of data set [13] is TP53. The method in brief: as §1
Data set [14] has as its system ZEB2. Summed up:
as §1

Consider CAUCUGGAGGUAAGAAGCACUUU, for which the “3' UTR reporter interaction score” value in data set [1] is 0.269; in [2], 0.237; in [3] it was 0.143; in [4], 0.165; in data set [5], -2.31; in data set [6] it was -0.232. The “3' UTR reporter interaction score” value in data set [7] is -0.242; in [8] it was -1.9; in data set [9], -0.32; in data set [10], 1.19; in data set [11] it was -0.503; in [12], 0.4. The results for the “3' UTR reporter interaction score” value in data set [13] and in data set [14] were -1.18 and 1.48, respectively.
In the case of CAUCUUACCGGACAGUGCUGGA, the “3' UTR reporter interaction score” value in data set [1] is 0.868; in data set [2] it was 0.0963; in [3], -0.296; in [4] it was 0.319; in [5] it was -1.55; in data set [6], -0.576. Also, the “3' UTR reporter interaction score” value in data set [7] is -0.0291; in data set [8], -0.174; in data set [9] it was 0.335; in [10], 0.881; in [11] it was 0.65; in [12], -0.297. In addition, the “3' UTR reporter interaction score” value in [13] is -0.701; in [14] it was -2.11.
Regarding CAUGCCUUGAGUGUAGGACCGU, the “3' UTR reporter interaction score” value in data set [1] was 0.421; in data set [2] it was 0.42; in data set [3], 0.998; in [4] it was -0.893; in data set [5] it was 0.293; in [6], -0.364. Besides, the “3' UTR reporter interaction score” value in [7] was -1.17; in [8], -1.07; in data set [9], -0.883; in [10] it was 1.76; in data set [11], -1.4; in data set [12], 0.637. The figures for the “3' UTR reporter interaction score” value in [13] and in [14] were 0.524 and -1.59, respectively.
Turning to CAUUGCACUUGUCUCGGUCUGA, the “3' UTR reporter interaction score” value in data set [1] was 0.658; in data set [2] it was 0.125; in [3], -0.0954; in data set [4] it was -0.416; in [5], -0.142; in data set [6] it was -0.0953. Further, the “3' UTR reporter interaction score” value in data set [7] was 0.278; in data set [8], 0.397; in data set [9], -0.145; in [10] it was -1.24; in [11], -0.664; in data set [12], 0.825. In addition, the results for the “3' UTR reporter interaction score” value in [13] and in data set [14] were -0.48 and -2.69, respectively.
For CCACACCGUAUCUGACACUUU, the “3' UTR reporter interaction score” value in data set [1] is -0.654; in data set [2], -0.643; in data set [3] it was 0.287; in [4], -0.828; in [5] it was -0.254; in data set [6], 0.101. Besides, the “3' UTR reporter interaction score” value in [7] is -1.37; in [8] it was 0.0842; in [9] it was -0.439; in data set [10] it was 0.504; in data set [11], 0.567; in data set [12], 0.211. Further, the results for the “3' UTR reporter interaction score” value in data set [13] and in [14] were 0.0153 and 1.51, respectively.
On to CCACUGCCCCAGGUGCUGCUGG, for which the “3' UTR reporter interaction score” value in data set [1] was -0.289; in [2] it was -0.183; in data set [3], -0.902; in data set [4], -0.594; in data set [5], 0; in data set [6], 0.562. In addition, the “3' UTR reporter interaction score” value in [7] was 0.494; in data set [8], 1.35; in data set [9], -1.62; in data set [10] it was 0.422; in data set [11], 0.479; in data set [12], 0.0205. For the same sequence, the “3' UTR reporter interaction score” value in data set [13] is -1.28; in data set [14] it was -1.03.
Regarding CCCAGAUAAUGGCACUCUCAA, the “3' UTR reporter interaction score” value in [1] is 0.00154; in data set [2] it was 0.0427; in [3] it was -0.29; in data set [4] it was 0.111; in data set [5] it was 0.409; in data set [6], -0.998. Also, the “3' UTR reporter interaction score” value is 0.82 in data set [7]; 0.0372 in [8]; -0.834 in data set [9]; -0.296 in [10]; 0.745 in data set [11]; -2.36 in data set [12]. The results for the “3' UTR reporter interaction score” value in data set [13] and in data set [14] were -0.804 and 0.427, respectively.
For the sequence CCCAGUGUUCAGACUACCUGUUC, the “3' UTR reporter interaction score” value is 0.218 in data set [1]; -0.25 in [2]; -0.85 in data set [3]; -0.0015 in data set [4]; 1.64 in [5]; 0.198 in [6]. Besides, the “3' UTR reporter interaction score” value in data set [7] is 0.666; in data set [8], 2.99; in data set [9], 0.374; in [10], 0.112; in data set [11] it was -0.196; in data set [12] it was -1.81. The figures for the “3' UTR reporter interaction score” value in [13] and in data set [14] were -0.337 and -0.517, respectively.
With CCCAGUGUUUAGACUAUCUGUUC, the “3' UTR reporter interaction score” value in data set [1] is 0.494; in data set [2], -0.185; in data set [3], -0.738; in data set [4], -0.315; in [5], 0.059; in data set [6], 0.905. The “3' UTR reporter interaction score” value in data set [7] is 0.186; in [8] it was 1.93; in data set [9], -0.226; in data set [10], 0.458; in data set [11], -0.251; in [12] it was -0.794. In addition, the “3' UTR reporter interaction score” value was -0.323 in data set [13] and 0.476 in [14].

The values are drawn from the supplement of paper PMC5844555.
